Assays:
P. gingivalis [1] = experiment: Photodynamic therapy assay, bacteria suspended in PBS; assay type: cell-based, Porphyromonas gingivalis 381; settings: for killing of P. gingivalis: light dose 2.2 J/cm^2, 50 μg/ml TBO, 5 min incubation
From the text: (§1) The following bacteria were used in these experiments and cultivated in an anaerobic chamber (available commercially from Coy Manufacturing Co.; AnnArbor, Mich., USA): Porphyromonas gingivalis 381; Prevotella intermedia 25611; Actinobacillus actinomycetemcomitans UT32; Fusobacterium nucleatum 1213; Bacteroides forsythus 43037. P. gingivalis and P. intermedia strains were subcultured weekly in Todd Hewitt Broth (available commercially from Fisher Scientific; Nepean, Ontario, Canada; hereinafter referred to as Fisher) supplemented with 5 μg/ml hemin (Sigma-Aldrich Co.; Oakville, Ontario, Canada; hereinafter referred to as Sigma) and 1 μg/ml menadione (Sigma). A. actinomycetemcomitans was subcultured in Tryptic Soy Broth (Fisher) containing 6 g/l yeast extract (Fisher) and 8 ml of 1.5% sodium bicarbonate, filter sterilized (Fisher). F. nucleatum was subcultured in Todd Hewitt Broth. B. forsythus was subcultured in Brain Heart Infusion Broth (95 ml) (Fisher) supplemented with 0.001 g N-acetylmuramic acid (Sigma) in 5 ml Horse Serum (Cedarlane Laboratories; Hornby, Ontario, Canada), filter sterilized. Prior to experiments, a fresh broth tube was inoculated and allowed to grow overnight at 37° C. in the anaerobic chamber.
A 100 Watt red-filtered xenon fibre optic light source having a bandwidth of 620-640 nm (available commercially from EXFO, Inc.; Mississauga, Ontario, Canada) was used in these experiments. […] Light dose for each source was calculated by the cross product of the TBO absorption spectrum and light spectrum.
(§2) The photosensitizer TBO (Sigma) was dissolved in Dulbecco's Phosphate Buffered Saline (PBS) (Sigma) to a concentration of 1 mg/ml under ambient light. […] The stock was diluted to appropriate concentrations with PBS as required.
(§3) An overnight bacterial culture was removed from the anaerobic chamber and centrifuged at 2400×g for 5 minutes in an IEC21000R centrifuge (Fisher). The supernatant was discarded and the pellet washed and resuspended three times in PBS. The bacterial suspension was then adjusted to a working concentration of approximately 10^10 colony forming units (cfu)/ml by measurement of optical density at 600 nm (Pharmacia LKB Ultraspec III). The suspension was returned to the anaerobic chamber and aliquoted in pre-reduced 1.5 ml microfuge tubes (Fisher) in order to decrease oxygen exposure of the anaerobic suspension.
Prior to light irradiation, 75 μl of calibrated bacterial suspension (7.5×10^8 cfu) was mixed with 75 μl of TBO stock solution (100 μg/ml) in a sterile tube, for a final mixture concentration of 5×10^9 cfu/ml and 50 μg/ml TBO. The mixture was then incubated at room temperature for 5 min. in the dark. TBO negative controls were incubated with an equal volume of sterile PBS instead of TBO. The mixture was then added to a sterilized perfusion chamber (Cedarlane Laboratories) mounted on a glass coverslip. The perfusion chamber was 500 μm thick, and so attenuation of the treatment light by the TBO was only 30% at 50 μg/ml. For most treatments at a concentration of 12.5 μg/ml TBO, the attenuation of treatment light was only 9%. The inoculated perfusion chamber was irradiated under the desired conditions with a light beam whose diameter covered the perfusion chamber's transparent surface. Upon completion, the mixture was removed and serially diluted in PBS and each dilution was plated on the following media: for P. gingivalis, P. intermedia, and F. nucleatum, Trypticase Soy Agar (Fisher) supplemented with 5 g/l yeast extract, 5 μg/ml hemin, 1 μg/ml menadione, 50 ml/l defibrinated sheep's blood (Oxoid, Inc.; Nepean, Ontario, Canada); for B. forsythus, Trypticase Soy Agar supplemented with 4 g/L yeast extract, 4 g/L trypticase peptone (Fisher), N-acetymuramic acid (10 mg/ml stock filter sterilized into medium to 10 mg/l); and for A. actinomycetemcomitans, Tryptic Soy Agar. […]

P. gingivalis [2] = experiment: Photodynamic therapy assay, serum and blood bacteria suspensions; assay type: cell-based, Porphyromonas gingivalis 381
Protocol: as §3
(§4) Prior to light irradiation, 75 μl of calibrated bacterial suspension (7.5×10^8 cfu) was mixed with 75 μl of TBO stock solution (100 μg/ml) in a sterile tube, for a final mixture concentration of 5×10^9 cfu/ml and 50 μg/ml TBO. The mixture was then incubated at room temperature for 5 min. in the dark. TBO negative controls were incubated with an equal volume of sterile PBS instead of TBO. The mixture was then added to a sterilized perfusion chamber (Cedarlane Laboratories) mounted on a glass coverslip. The perfusion chamber was 500 μm thick, and so attenuation of the treatment light by the TBO was only 30% at 50 μg/ml. For most treatments at a concentration of 12.5 μg/ml TBO, the attenuation of treatment light was only 9%. The inoculated perfusion chamber was irradiated under the desired conditions with a light beam whose diameter covered the perfusion chamber's transparent surface. […] Colony counts determined the number of bacterial survivors and they were expressed as cfu/ml. […]

P. gingivalis [3] = experiment: Photodynamic therapy assay after serum washout of bacteria; assay type: cell-based, Porphyromonas gingivalis 381
Protocol: as §3
as §4, with “μg/ml.” for “μg/ml. For most treatments at a concentration of 12.5 μg/ml TBO, the attenuation of treatment light was only 9%. The inoculated perfusion chamber was irradiated under the desired conditions with a light beam whose diameter covered the perfusion chamber's transparent surface.”

P. intermedia = experiment: as above; assay type: cell-based, Prevotella intermedia 25611; settings: xenon lamp 10 J/cm^2, 100 mW/cm^2, 12.5 μg/ml TBO
From the text: as §1, with “B. forsythus was subcultured in Brain Heart Infusion Broth (95 ml) (Fisher) supplemented with 0.001 g N-acetylmuramic acid (Sigma) in 5 ml Horse Serum (Cedarlane Laboratories; Hornby, Ontario, Canada), filter sterilized. Prior to experiments, a fresh broth tube was inoculated and allowed to grow overnight at 37° C. in the anaerobic chamber.” left out
(§5) Prior to light irradiation, 75 μl of calibrated bacterial suspension (7.5×10^8 cfu) was mixed with 75 μl of TBO stock solution (100 μg/ml) in a sterile tube, for a final mixture concentration of 5×10^9 cfu/ml and 50 μg/ml TBO. […] Colony counts determined the number of bacterial survivors and they were expressed as cfu/ml. […]

F. nucleatum = experiment: as above; assay type: cell-based, Fusobacterium nucleatum 1213; settings: xenon lamp 10 J/cm^2, 100 mW/cm^2, 12.5 μg/ml TBO
From the text: as §1, with “B. forsythus was subcultured in Brain Heart Infusion Broth (95 ml) (Fisher) supplemented with 0.001 g N-acetylmuramic acid (Sigma) in 5 ml Horse Serum (Cedarlane Laboratories; Hornby, Ontario, Canada), filter sterilized. Prior to experiments, a fresh broth tube was inoculated and allowed to grow overnight at 37° C. in the anaerobic chamber.” left out
as §5

A. actinomycetemcomitans = experiment: as above; assay type: cell-based, Actinobacillus actinomycetemcomitans UT32; settings: xenon lamp 10 J/cm^2, 100 mW/cm^2, 12.5 μg/ml TBO
From the text: as §1, with “B. forsythus was subcultured in Brain Heart Infusion Broth (95 ml) (Fisher) supplemented with 0.001 g N-acetylmuramic acid (Sigma) in 5 ml Horse Serum (Cedarlane Laboratories; Hornby, Ontario, Canada), filter sterilized. Prior to experiments, a fresh broth tube was inoculated and allowed to grow overnight at 37° C. in the anaerobic chamber.” left out
as §5

B. forsythus = experiment: as above; assay type: cell-based, Bacteroides forsythus 43037; settings: xenon lamp 10 J/cm^2, 100 mW/cm^2, 12.5 μg/ml TBO
From the text: as §1, with “B. forsythus was subcultured in Brain Heart Infusion Broth (95 ml) (Fisher) supplemented with 0.001 g N-acetylmuramic acid (Sigma) in 5 ml Horse Serum (Cedarlane Laboratories; Hornby, Ontario, Canada), filter sterilized. Prior to experiments, a fresh broth tube was inoculated and allowed to grow overnight at 37° C. in the anaerobic chamber.” left out
as §5

[4] = Storage stability of TBO stock solution; assay type: physicochemical; settings: 1 mg/ml in PBS, filter sterilized, dark tubes at −20° C., up to 3 months
Protocol: as §2

[5] = xenon lamp 6.3 J/cm^2, 100 mW/cm^2, 12.5 μg/ml TBO

Cc1cc2nc3ccc(N(C)C)cc3[s+]c2cc1N [TBO, toluidine blue O]
increase in bacterial killing, xenon lamp versus He—Ne laser (P. gingivalis [1]; 2.2 J/cm^2, 50 μg/ml TBO): ~10 fold | reduction in viable bacteria (P. gingivalis [1]; He—Ne laser, 2.2 J/cm^2, 50 μg/ml TBO): approximately 270 × | killing of P. gingivalis (P. gingivalis [1]; He—Ne laser): 2.43±0.39 logs | killing of P. gingivalis (P. gingivalis [1]; red-filtered xenon lamp): 3.34±0.24 logs | P. gingivalis kill in the absence of serum (P. gingivalis [1]; [5]): 6.02±0.76 logs | kill of P. gingivalis at each TBO concentration tested (P. gingivalis [1]; xenon lamp 6.3 J/cm^2 and 100 mW/cm^2, each drug concentration incl. 3.125, 6.25 and 12.5 μg/ml): 5 logs | kill of P. gingivalis (P. gingivalis [1]; xenon lamp 10 mW/cm^2, total light dose 2.2 J/cm^2, 50 μg/ml TBO): 2.12±0.36 logs | kill of P. gingivalis (P. gingivalis [1]; xenon lamp 25 mW/cm^2, total light dose 2.2 J/cm^2, 50 μg/ml TBO): 3.34±0.41 logs | bacterial kill of P. gingivalis (P. gingivalis [1]; xenon lamp 100 mW/cm^2, light dose 6.3 J/cm^2, 50 μg/ml TBO): 5 logs | kill of P. gingivalis (P. gingivalis [1]; xenon lamp 100 mW/cm^2, total light dose 2.2 J/cm^2, 50 μg/ml TBO): 3.41±0.58 logs | P. gingivalis killing with serum (P. gingivalis [2]; FBS 50% (v/v), xenon lamp 6.3 J/cm^2, 100 mW/cm^2, 12.5 μg/ml TBO): 3.05±1.02 logs | maximum blood resuspended P. gingivalis kill (P. gingivalis [2]; defibrinated sheep's blood, xenon lamp 20 J/cm^2, 100 mW/cm^2, 12.5 μg/ml TBO): 2.85±0.33 logs | kill of blood suspended P. gingivalis compared to TBO absent controls at higher light doses (P. gingivalis [2]; defibrinated sheep's blood, xenon lamp 100 mW/cm^2, 12.5 μg/ml TBO, light doses above 10 J/cm^2): ~3 log | P. gingivalis killing after serum washout (P. gingivalis [3]; [5]): 4.71±1.07 logs | P. gingivalis kill after serum washout (P. gingivalis [3]; xenon lamp 10 J/cm^2, 100 mW/cm^2, 12.5 μg/ml TBO): 5.48±0.68 logs | P. intermedia kill (P. intermedia): 5.33±0.62 logs | F. nucleatum kill (F. nucleatum): 4.7±0.72 logs | A. actinomycetemcomitans kill (A. actinomycetemcomitans): 5.51±1.34 logs | B. forsythus killing (B. forsythus): 3.92±0.68 logs | storage stability of stock solution [4]: without a loss in potency

— patent publication US20060093561A1, “Method of treating microorganisms in the oral cavity” (priority 2004, published 2006)
